Experimental data reported in patent US20260216196A1, “IMIDAZO[1,2-A]PYRIDINE AND IMIDAZO[1,2-A]PYRAZINE DERIVATIVES AS MLLT1 AND MLLT3 INHIBITORS” (DARK BLUE THERAPEUTICS LTD., priority 2022, published 2026).
Where a name gives a salt, the structure may show the parent alone.

Key:
[1] = molecular target: MLLT3 (Homo sapiens, UniProt P42568); experiment: HTRF IC50 determination assay, MLLT3 / H3K9cro peptide displacement; settings: MLLT3 assay IC50 (nM), 6His tagged MLLT3, biotinylated H3K9cro peptide, compound 20 μM to 20 nM, 11 data points in duplicate
Sequence of MLLT3 (P42568 whole entry): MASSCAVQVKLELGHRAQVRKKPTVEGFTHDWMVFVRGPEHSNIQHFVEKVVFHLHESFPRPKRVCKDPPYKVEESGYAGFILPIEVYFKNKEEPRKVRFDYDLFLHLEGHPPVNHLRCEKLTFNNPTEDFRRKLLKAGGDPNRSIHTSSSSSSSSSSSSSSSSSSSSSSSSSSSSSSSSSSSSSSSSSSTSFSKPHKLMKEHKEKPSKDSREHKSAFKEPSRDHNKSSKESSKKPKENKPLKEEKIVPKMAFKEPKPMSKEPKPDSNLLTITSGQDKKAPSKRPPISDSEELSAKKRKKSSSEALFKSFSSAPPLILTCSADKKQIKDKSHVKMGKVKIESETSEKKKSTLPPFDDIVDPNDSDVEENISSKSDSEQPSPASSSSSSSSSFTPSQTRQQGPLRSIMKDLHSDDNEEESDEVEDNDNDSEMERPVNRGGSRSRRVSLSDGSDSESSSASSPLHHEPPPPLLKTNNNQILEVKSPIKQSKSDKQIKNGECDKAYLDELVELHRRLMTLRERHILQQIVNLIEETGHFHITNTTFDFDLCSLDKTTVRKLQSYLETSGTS

[2] = molecular target: MLLT1 (Homo sapiens, UniProt Q03111); experiment: biochemical; settings: MLLT1 assay IC50 (nM), HTRF, 6His tagged MLLT1, biotinylated H3K9cro peptide; compound 20 μM to 20 nM, 11 data points in duplicate
Sequence of MLLT1 (Q03111 whole entry): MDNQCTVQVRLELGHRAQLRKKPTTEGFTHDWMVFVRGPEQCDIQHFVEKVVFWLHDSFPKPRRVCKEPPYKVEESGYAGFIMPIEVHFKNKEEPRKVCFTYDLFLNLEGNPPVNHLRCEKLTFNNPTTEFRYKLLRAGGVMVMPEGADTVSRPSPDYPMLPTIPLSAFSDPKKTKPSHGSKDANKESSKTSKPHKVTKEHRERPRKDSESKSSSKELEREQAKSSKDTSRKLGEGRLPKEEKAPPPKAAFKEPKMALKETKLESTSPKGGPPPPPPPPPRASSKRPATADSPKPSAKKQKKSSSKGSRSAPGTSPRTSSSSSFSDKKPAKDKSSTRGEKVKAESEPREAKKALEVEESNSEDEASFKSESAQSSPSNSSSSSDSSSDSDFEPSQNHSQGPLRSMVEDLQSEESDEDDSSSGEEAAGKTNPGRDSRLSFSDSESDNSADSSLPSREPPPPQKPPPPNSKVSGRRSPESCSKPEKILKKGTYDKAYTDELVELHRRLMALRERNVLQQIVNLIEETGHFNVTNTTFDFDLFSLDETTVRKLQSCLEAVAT

IC50 [1] | IC50 [2] | SMILES
150 to 1500 nM | 150 to 1500 nM | COc1cc(NC(=O)c2ccc3c(C)nn(C)c3c2)cn2cc(C3CCCN3C)nc12 (racemic) [Example 1, rac-N-[8-methoxy-2-(1-methylpyrrolidin-2-yl)imidazo[1,2-a]pyridin-6-yl]-1,3-dimethyl-indazole-6-carboxamide]
1500 to 20000 nM | 150 to 1500 nM | CN1CCCC1(C)c1cn2cc(NC(=O)c3ccc4c(cnn4C)c3)ccc2n1 (racemic) [Example 4, rac-N-[2-(1,2-dimethylpyrrolidin-2-yl)imidazo[1,2-a]pyridin-6-yl]-1-methylindazole-5-carboxamide]
1500 to 20000 nM | 1500 to 20000 nM | CN1CCCC1c1cn2cc(NC(=O)c3cnc4cc(Cl)ccc4c3)ccc2n1 (racemic) [Example 9, rac-7-chloro-N-[2-(1-methylpyrrolidin-2-yl)imidazo[1,2-a]pyridin-6-yl]quinoline-3-carboxamide]
> 20000 nM | 1500 to 20000 nM | CN1CCCC1c1cn2cc(NC(=O)c3ccc4ncccc4n3)ccc2n1 (racemic) [Example 10, rac-N-[2-(1-methylpyrrolidin-2-yl)imidazo[1,2-a]pyridin-6-yl]-1,5-naphthyridine-2-carboxamide]
150 to 1500 nM | 150 to 1500 nM | Cc1nc2ccc(C(=O)Nc3ccc4nc(C5CCCN5C)cn4c3)cc2nc1C (racemic) [Example 11, rac-2,3-dimethyl-N-[2-(1-methylpyrrolidin-2-yl)imidazo[1,2-a]pyridin-6-yl]quinoxaline-6-carboxamide]
1500 to 20000 nM | 1500 to 20000 nM | CN1CCCC1c1cn2cc(NC(=O)c3ccc(-n4cccn4)nc3)ccc2n1 (racemic) [Example 13, rac-N-[2-(1-methylpyrrolidin-2-yl)imidazo[1,2-a]pyridin-6-yl]-6-(1H-pyrazol-1-yl)pyridine-3-carboxamide]
150 to 1500 nM | 150 to 1500 nM | Cc1nn(C)c2cc(C(=O)Nc3ccc4nc(C5CCCN5C)cn4c3)ccc12 (racemic) [Example 14, rac-1,3-dimethyl-N-[2-(1-methylpyrrolidin-2-yl)imidazo[1,2-a]pyridin-6-yl]-1H-indazole-6-carboxamide]
1500 to 20000 nM | 1500 to 20000 nM | Cc1nn(C)c2nc(C(=O)Nc3ccc4nc(C5CCCN5C)cn4c3)ccc12 (racemic) [Example 31, rac-1,3-dimethyl-N-[2-(1-methylpyrrolidin-2-yl)imidazo[1,2-a]pyridin-6-yl]-1H-pyrazolo[3,4-b]pyridine-6-carboxamide]
1500 to 20000 nM | 150 to 1500 nM | CN1CCCC1c1cn2cc(NC(=O)c3ccn4cnnc4c3)ccc2n1 (racemic) [Example 33, rac-N-[2-(1-methylpyrrolidin-2-yl)imidazo[1,2-a]pyridin-6-yl]-[1,2,4]triazolo[4,3-alpyridine-7-carboxamide]
1500 to 20000 nM | 1500 to 20000 nM | CCc1nnc2cc(C(=O)Nc3ccc4nc(C5CCCN5C)cn4c3)ccn12 (racemic) [Example 35, rac-3-ethyl-N-[2-(1-methylpyrrolidin-2-yl)imidazo[1,2-a]pyridin-6-yl]-[1,2,4]triazolo[4,3-a]pyridine-7-carboxamide formate]
1500 to 20000 nM | 1500 to 20000 nM | COc1ccc(-c2nc(C(=O)Nc3ccc4nc(C5CCCN5C)cn4c3)cs2)cc1 (racemic) [Example 38, rac-2-(4-methoxyphenyl)-N-[2-(1-methylpyrrolidin-2-yl)imidazo[1,2-a]pyridin-6-yl]-1,3-thiazole-4-carboxamide]
> 20000 nM | 1500 to 20000 nM | COc1ccc2c(C(=O)Nc3ccc4nc(C5CCCN5C)cn4c3)c[nH]c2c1 (racemic) [Example 39, rac-6-methoxy-N-[2-(1-methylpyrrolidin-2-yl)imidazo[1,2-a]pyridin-6-yl]-1H-indole-3-carboxamide]
1500 to 20000 nM | 150 to 1500 nM | CN1CCCC1c1cn2cc(NC(=O)c3ccc(-n4cccn4)cc3)ccc2n1 (racemic) [Example 40, rac-N-[2-(1-methylpyrrolidin-2-yl)imidazo[1,2-a]pyridin-6-yl]-4-(1H-pyrazol-1-yl)benzamide]
150 to 1500 nM | – | CCc1nn(C)c2ccc(C(=O)Nc3ccc4nc(C5CCCN5C)cn4c3)cc12 (racemic) [Example 61, rac-3-ethyl-1-methyl-N-[2-(1-methylpyrrolidin-2-yl)imidazo[1,2-a]pyridin-6-yl]-1H-indazole-5-carboxamide]
1500 to 20000 nM | – | CCC1CC(c2cn3cc(NC(=O)c4ccc5c(C)nn(C)c5c4)ncc3n2)N(C)C1 (single isomer, unassigned) [Example 77, N-{2-[4-ethyl-1-methylpyrrolidin-2-yl]imidazo[1,2-a]pyrazin-6-yl}-1,3-dimethyl-1H-indazole-6-carboxamide]
< 150 nM | – | CCC1CC(c2cn3cc(NC(=O)c4ccc5c(C)nn(C)c5c4)ncc3n2)N(C)C1 (single isomer, unassigned) [Example 79, N-{2-[4-ethyl-1-methylpyrrolidin-2-yl]imidazo[1,2-a]pyrazin-6-yl}-1,3-dimethyl-1H-indazole-6-carboxamide]
< 150 nM | – | CCC1CC(c2cn3cc(NC(=O)c4ccc5c(C)nn(C)c5c4)ncc3n2)N(C)C1 (single isomer, unassigned) [Example 80, N-{2-[4-ethyl-1-methylpyrrolidin-2-yl]imidazo[1,2-a]pyrazin-6-yl}-1,3-dimethyl-1H-indazole-6-carboxamide]

The remaining lines, values behind:

SMILES | IC50 [1] | IC50 [2]
CN1CCOCC1c1cn2cc(NC(=O)c3ccc4c(cnn4C)c3)ccc2n1 (racemic) [Example 2, rac-1-methyl-N-[2-(4-methylmorpholin-3-yl)imidazo[1,2-a]pyridin-6-yl]indazole-5-carboxamide] | 1500 to 20000 nM | 1500 to 20000 nM
CN1CC2(CCCC2)CC1c1cn2cc(NC(=O)c3ccc4c(cnn4C)c3)ccc2n1 (racemic) [Example 3, rac-1-methyl-N-(2-{2-methyl-2-azaspiro[4.4]nonan-3-yl}imidazo[1,2-a]pyridin-6-yl)indazole-5-carboxamide] | 150 to 1500 nM | 150 to 1500 nM
CN1CCCC1c1cn2cc(NC(=O)c3ccc(-n4cncn4)cc3)ccc2n1 (racemic) [Example 12, rac-N-[2-(1-methylpyrrolidin-2-yl)imidazo[1,2-a]pyridin-6-yl]-4-(1H-1,2,4-triazol-1-yl)benzamide] | 1500 to 20000 nM | 150 to 1500 nM
Cc1nn(C)c2ncc(C(=O)Nc3ccc4nc(C5CCCN5C)cn4c3)c(Cl)c12 (racemic) [Example 15, rac-4-chloro-1,3-dimethyl-N-[2-(1-methylpyrrolidin-2-yl)imidazo[1,2-a]pyridin-6-yl]-1H-pyrazolo[3,4-b]pyridine-5-carboxamide] | 1500 to 20000 nM | 1500 to 20000 nM
Cc1nc(-c2ccc(C(=O)Nc3ccc4nc(C5CCCN5C)cn4c3)cc2)cs1 (racemic) [Example 16, rac-4-(2-methyl-1,3-thiazol-4-yl)-N-[2-(1-methylpyrrolidin-2-yl)imidazo[1,2-a]pyridin-6-yl]benzamide] | 150 to 1500 nM | 150 to 1500 nM
COc1ccc2nc(C(=O)Nc3ccc4nc(C5CCCN5C)cn4c3)sc2c1 (racemic) [Example 17, rac-6-methoxy-N-[2-(1-methylpyrrolidin-2-yl)imidazo[1,2-a]pyridin-6-yl]-1,3-benzothiazole-2-carboxamide] | 1500 to 20000 nM | 1500 to 20000 nM
Cc1nn(C)c2sc(C(=O)Nc3ccc4nc(C5CCCN5C)cn4c3)cc12 (racemic) [Example 18, rac-1,3-dimethyl-N-[2-(1-methylpyrrolidin-2-yl)imidazo[1,2-a]pyridin-6-yl]-1H-thieno[2,3-c]pyrazole-5-carboxamide] | 1500 to 20000 nM | 1500 to 20000 nM
Cc1noc2cc(C(=O)Nc3ccc4nc(C5CCCN5C)cn4c3)ccc12 (racemic) [Example 29, rac-3-methyl-N-[2-(1-methylpyrrolidin-2-yl)imidazo[1,2-a]pyridin-6-yl]-1,2-benzoxazole-6-carboxamide] | 1500 to 20000 nM | 1500 to 20000 nM
Cc1nn(C)c2cc(C(=O)Nc3ccc4nc(C5CCCN5C)cn4c3)c(F)cc12 (racemic) [Example 30, rac-5-fluoro-1,3-dimethyl-N-[2-(1-methylpyrrolidin-2-yl)imidazo[1,2-a]pyridin-6-yllindazole-6-carboxamide] | 150 to 1500 nM | 150 to 1500 nM
CN1CCCC1c1cn2cc(NC(=O)c3ccn4ccnc4c3)ccc2n1 (racemic) [Example 32, rac-N-[2-(1-methylpyrrolidin-2-yl)imidazo[1,2-a]pyridin-6-yl]imidazo[1,2-a]pyridine-7-carboxamide] | 1500 to 20000 nM | 150 to 1500 nM
CN1CCCC1c1cn2cc(NC(=O)c3cn4ccncc4n3)ccc2n1 (racemic) [Example 34, rac-N-[2-(1-methylpyrrolidin-2-yl)imidazo[1,2-a]pyridin-6-yl]imidazo[1,2-a]pyrazine-2-carboxamide] | 1500 to 20000 nM | 1500 to 20000 nM
CN1CCCC1c1cn2cc(NC(=O)c3ccc4nc[nH]c4n3)ccc2n1 (racemic) [Example 36, rac-N-[2-(1-methylpyrrolidin-2-yl)imidazo[1,2-a]pyridin-6-yl]-3H-imidazo[4,5-b]pyridine-5-carboxamide] | > 20000 nM | 1500 to 20000 nM
CN1CCCC1c1cn2cc(NC(=O)c3ccc4ncoc4c3)ccc2n1 (racemic) [Example 37, rac-N-[2-(1-methylpyrrolidin-2-yl)imidazo[1,2-a]pyridin-6-yl]-1,3-benzoxazole-6-carboxamide] | 1500 to 20000 nM | 150 to 1500 nM
CCC1CC(c2cn3cc(NC(=O)c4ccc5c(C)nn(C)c5c4)ncc3n2)N(C)C1 (single isomer, unassigned) [Example 78, N-{2-[4-ethyl-1-methylpyrrolidin-2-yl]imidazo[1,2-a]pyrazin-6-yl}-1,3-dimethyl-1H-indazole-6-carboxamide] | 150 to 1500 nM | –
